Tests used:
Hs746T cell line = assay: Cell proliferation inhibition experiment (CellTiter-Glo), Hs746T; format: cell-based; conditions: Homo sapiens, Hs 746T, CTG, 72 h
Procedure: (§1) CellTiter-Glo™ live cell detection kit adopts luciferase as the detection substance, and the luciferase needs the participation of ATP in the luminescence process. CellTiter-Glo™ reagent was added into the cell culture medium and the luminescence value was measured. The light signal is in direct proportion to the amount of ATP in the system, ATP is in direct correlation with number of living cells. Therefore, the proliferation of cells can be detected by detecting the content of ATP with CellTiter-Glo kit.
(§2) In the experiment, the proliferation inhibition effect of the prepared compounds on tumor cell lines Hs746T, EBC-1 and H1993 was measured by a celltiter-glo (CTG) method, and 50% inhibition concentration IC50 was calculated.
(§3) The compounds were determined on the selected cells, the solvent control was set and a total of 10 concentrations were detected, 2 replicates per concentration.
(§4) a) Cells in the logarithmic growth phase were harvested and counted by a […]. The cell viability was detected by a trypan blue exclusion method to ensure that the cell viability was over 90%.
(§5) b) The cell concentration was adjusted; 30 μL of cell suspension was added to a 384-well plate respectively.
(§6) c) Cells in a 384-well plate were incubated overnight at 37° C., 5% CO2 and 95% humidity.
(§7) a) 10 times of drug solution was prepared with the highest concentration of 10 mM, 10 concentrations and 3 times dilution, 10 μL of drug solution was added into each well of a 384-well plate inoculated with cells, and three multiple wells were arranged for each drug concentration. DMSO was the blank control.
(§8) b) The cells in the 384-well plate were incubated for a further 72 h at 37° C., 5% CO2 and 95% humidity before CTG analysis.
(§9) a) The CTG reagent was melted and the cell plate was equilibrated to room temperature for 30 min.
(§10) b) An equal volume of CTG solution was added to each well.
(§11) c) Cells were lysed by shaking on an orbital shaker for 5 minutes.
(§12) d) The cell plate was left at room temperature for 20 minutes to stabilize the luminescence signal.
(§13) e) The cold light value was read.
(§14) The data was analyzed by GraphPad Prism 8 software, and the dose-response curve was fitted with nonlinear S-curve regression, and the IC50 value was calculated therefrom.
(§15) Cell viability(%)=(Lumdrugs to be tested-Lumblank control)/(Lumcell control-Lumblank control)×100%.

H1993 cell line = assay: Cell proliferation inhibition experiment (CellTiter-Glo), H1993; format: cell-based; conditions: Homo sapiens, NCI-H1993, CTG, 72 h
Procedure: as §1, §2, §3, §4, §5, §6, §7, §8, §9, §10, §11, §12, §13, §14, §15

[1] = target: T1, wild type (WT) MET kinase (Homo sapiens, UniProt P08581); assay: Kinase inhibition experiment (HTRF KinEASE-TK kit), wild-type MET; format: biochemical; conditions: 10 concentrations, 3-fold dilution
T1 construct: purchased Carna 08-151
T1 sequence (P08581 25-1390): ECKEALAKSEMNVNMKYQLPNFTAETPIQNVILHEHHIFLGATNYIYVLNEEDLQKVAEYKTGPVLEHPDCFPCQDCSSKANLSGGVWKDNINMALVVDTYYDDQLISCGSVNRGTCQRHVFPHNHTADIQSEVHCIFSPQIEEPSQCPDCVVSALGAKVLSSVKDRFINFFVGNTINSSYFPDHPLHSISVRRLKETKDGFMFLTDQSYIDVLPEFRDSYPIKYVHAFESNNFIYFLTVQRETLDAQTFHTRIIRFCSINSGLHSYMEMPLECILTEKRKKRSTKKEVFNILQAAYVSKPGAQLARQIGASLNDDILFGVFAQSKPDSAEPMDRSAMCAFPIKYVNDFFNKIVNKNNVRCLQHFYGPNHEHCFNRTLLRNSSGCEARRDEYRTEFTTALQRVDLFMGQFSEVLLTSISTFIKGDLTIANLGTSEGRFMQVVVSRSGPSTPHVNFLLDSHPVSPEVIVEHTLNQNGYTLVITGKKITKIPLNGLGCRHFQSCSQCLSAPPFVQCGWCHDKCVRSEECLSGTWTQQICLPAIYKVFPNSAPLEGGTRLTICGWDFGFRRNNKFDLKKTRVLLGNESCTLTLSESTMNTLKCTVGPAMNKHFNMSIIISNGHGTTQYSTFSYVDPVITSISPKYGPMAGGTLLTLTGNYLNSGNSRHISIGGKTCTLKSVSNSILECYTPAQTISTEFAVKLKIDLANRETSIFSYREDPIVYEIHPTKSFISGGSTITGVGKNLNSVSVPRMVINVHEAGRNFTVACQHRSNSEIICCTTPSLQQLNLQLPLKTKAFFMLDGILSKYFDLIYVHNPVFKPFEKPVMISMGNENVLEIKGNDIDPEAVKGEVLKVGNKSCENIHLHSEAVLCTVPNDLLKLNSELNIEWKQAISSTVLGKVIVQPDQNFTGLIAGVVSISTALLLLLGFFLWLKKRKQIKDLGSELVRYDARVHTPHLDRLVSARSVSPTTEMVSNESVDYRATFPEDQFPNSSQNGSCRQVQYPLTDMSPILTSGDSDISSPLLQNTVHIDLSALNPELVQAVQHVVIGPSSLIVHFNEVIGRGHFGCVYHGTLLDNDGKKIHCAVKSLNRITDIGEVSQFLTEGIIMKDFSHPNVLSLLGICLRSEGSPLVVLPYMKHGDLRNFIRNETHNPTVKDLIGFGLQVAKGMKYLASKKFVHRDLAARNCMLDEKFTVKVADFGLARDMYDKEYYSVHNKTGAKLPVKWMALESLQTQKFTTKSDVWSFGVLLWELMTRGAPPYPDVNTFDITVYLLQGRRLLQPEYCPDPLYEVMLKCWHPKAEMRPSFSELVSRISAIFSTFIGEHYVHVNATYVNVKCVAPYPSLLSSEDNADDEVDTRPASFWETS
Procedure: (§16) The activity of the compounds was determined by detecting the residual amount of ATP after reacting with wild-type or mutant MET protein kinase by using an HTRF KinEASE-TK kit. […]
(§17) The compounds were determined on the selected kinase, the solvent control was set and a total of 10 concentrations were detected, diluted 3-fold, 2 replicates per concentration.
(§18) 1 volume of 5× kinase reaction buffer and 4 volumes of water; 5 mM MgCl2; 1 mM DTT; 1 mM MnCl2; or 2500 nm SEB.
(§19) 1) 10 nl or 4 μlof the diluted compound was transferred to each well of the reaction plate (784075 or 264706, Greiner or Thermo) with a pipette, the reaction plate was sealed with a sealing plate, and centrifuged at 1000 for 1 minute.
(§20) 2) 2× MET was prepared from 1× enzyme reaction buffer, 5 μl or 2 μl kinase was added to each well of the reaction plate, the reaction plate was sealed with a sealing plate, centrifuged at 1000 g for 30 seconds and incubated at room temperature for 10 min.
(§21) 3) a mixed solution of 2× TK-substrate-biotin and ATP were prepared from 1× enzyme reaction buffer solution, 5 μl or 2 μl TK-substrate-biotin/ATP of the mixed solution was added into a reaction plate, the reaction plate was sealed with a sealing plate, centrifuged at 1000 g for 30 seconds and reacted for 50 minutes or 10 minutes at room temperature.
(§22) 4) a mixed solution of 4× or 2× Sa-XL 665 and TK-antibody-Cryptate were prepared from HTRF detection buffer, 5 or 10 μl of the mixed solution of Sa-XL 665 and TK-antibody-Cryptate was added into each well, centrifuged at 1000 g for 30 seconds, and reacted at room temperature for 1 h.
(§23) 5) the fluorescence signals at 615 nm (cryptate) and 665 nm (XL665) were read with Envision 2104 or TECAN.
(§24) The data was analyzed using GraphPad Prism 6.0 or 7 software, and the dose-response curve was fitted with nonlinear S-curve regression, and the IC50 value was calculated therefrom.
(§25) Enzyme Inhibition Percent (%)=100-(Signalmpd-SignalAve_PC)/(SignalAve_VC-SignalAve_PC)×100

MET D1228N = target: T2, MET D1228N (Homo sapiens, UniProt P08581, D1228N); assay: Kinase inhibition experiment (HTRF KinEASE-TK kit), mutant MET D1228N; format: biochemical; conditions: 10 concentrations, 3-fold dilution
T2 construct: purchased Signalchem M52-12IG
T2 sequence (P08581 25-1390 D1228N): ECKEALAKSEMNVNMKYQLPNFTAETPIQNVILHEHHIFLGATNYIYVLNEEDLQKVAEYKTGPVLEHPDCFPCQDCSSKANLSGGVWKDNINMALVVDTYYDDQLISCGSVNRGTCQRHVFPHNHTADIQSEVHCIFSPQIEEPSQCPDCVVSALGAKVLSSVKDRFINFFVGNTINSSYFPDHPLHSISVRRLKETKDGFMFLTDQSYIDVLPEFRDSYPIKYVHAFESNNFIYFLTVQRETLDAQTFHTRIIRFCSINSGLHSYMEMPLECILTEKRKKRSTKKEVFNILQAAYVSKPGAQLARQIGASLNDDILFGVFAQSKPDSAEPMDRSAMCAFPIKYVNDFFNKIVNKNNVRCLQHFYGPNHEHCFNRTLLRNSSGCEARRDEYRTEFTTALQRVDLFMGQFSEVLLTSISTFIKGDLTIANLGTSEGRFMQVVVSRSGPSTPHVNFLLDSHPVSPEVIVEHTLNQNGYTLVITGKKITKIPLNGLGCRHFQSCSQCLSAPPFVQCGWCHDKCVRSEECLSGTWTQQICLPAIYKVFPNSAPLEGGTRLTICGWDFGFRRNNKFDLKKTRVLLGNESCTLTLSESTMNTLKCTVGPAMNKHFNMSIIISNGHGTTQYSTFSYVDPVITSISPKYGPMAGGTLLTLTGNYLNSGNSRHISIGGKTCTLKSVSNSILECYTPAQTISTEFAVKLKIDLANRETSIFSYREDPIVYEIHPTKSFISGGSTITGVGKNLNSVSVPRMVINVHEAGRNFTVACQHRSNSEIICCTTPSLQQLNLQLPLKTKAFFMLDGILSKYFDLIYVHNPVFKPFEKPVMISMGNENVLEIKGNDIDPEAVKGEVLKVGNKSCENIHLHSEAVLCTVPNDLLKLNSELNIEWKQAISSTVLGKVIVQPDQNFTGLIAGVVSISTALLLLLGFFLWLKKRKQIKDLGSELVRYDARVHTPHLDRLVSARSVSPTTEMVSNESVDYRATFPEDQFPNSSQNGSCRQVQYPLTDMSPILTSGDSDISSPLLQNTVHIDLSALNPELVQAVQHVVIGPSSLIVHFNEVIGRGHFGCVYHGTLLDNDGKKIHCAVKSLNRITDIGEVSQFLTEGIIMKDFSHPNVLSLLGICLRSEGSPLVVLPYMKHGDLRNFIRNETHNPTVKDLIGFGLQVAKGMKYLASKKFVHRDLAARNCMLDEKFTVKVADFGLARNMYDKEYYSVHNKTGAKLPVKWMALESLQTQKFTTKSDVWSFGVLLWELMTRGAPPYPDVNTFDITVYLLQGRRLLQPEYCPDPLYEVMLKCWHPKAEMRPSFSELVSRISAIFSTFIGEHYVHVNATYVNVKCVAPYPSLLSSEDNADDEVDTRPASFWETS
Procedure: as §16, §17, §18, §19, §20, §21, §22, §23, §24, §25

MET F1200I = target: T3, MET F1200I (Homo sapiens, UniProt P08581, F1200I); assay: Kinase inhibition experiment (HTRF KinEASE-TK kit), mutant MET F1200I; format: biochemical; conditions: 10 concentrations, 3-fold dilution
T3 construct: purchased Signalchem M52-12GG/Y767-2
T3 sequence (P08581 25-1390 F1200I): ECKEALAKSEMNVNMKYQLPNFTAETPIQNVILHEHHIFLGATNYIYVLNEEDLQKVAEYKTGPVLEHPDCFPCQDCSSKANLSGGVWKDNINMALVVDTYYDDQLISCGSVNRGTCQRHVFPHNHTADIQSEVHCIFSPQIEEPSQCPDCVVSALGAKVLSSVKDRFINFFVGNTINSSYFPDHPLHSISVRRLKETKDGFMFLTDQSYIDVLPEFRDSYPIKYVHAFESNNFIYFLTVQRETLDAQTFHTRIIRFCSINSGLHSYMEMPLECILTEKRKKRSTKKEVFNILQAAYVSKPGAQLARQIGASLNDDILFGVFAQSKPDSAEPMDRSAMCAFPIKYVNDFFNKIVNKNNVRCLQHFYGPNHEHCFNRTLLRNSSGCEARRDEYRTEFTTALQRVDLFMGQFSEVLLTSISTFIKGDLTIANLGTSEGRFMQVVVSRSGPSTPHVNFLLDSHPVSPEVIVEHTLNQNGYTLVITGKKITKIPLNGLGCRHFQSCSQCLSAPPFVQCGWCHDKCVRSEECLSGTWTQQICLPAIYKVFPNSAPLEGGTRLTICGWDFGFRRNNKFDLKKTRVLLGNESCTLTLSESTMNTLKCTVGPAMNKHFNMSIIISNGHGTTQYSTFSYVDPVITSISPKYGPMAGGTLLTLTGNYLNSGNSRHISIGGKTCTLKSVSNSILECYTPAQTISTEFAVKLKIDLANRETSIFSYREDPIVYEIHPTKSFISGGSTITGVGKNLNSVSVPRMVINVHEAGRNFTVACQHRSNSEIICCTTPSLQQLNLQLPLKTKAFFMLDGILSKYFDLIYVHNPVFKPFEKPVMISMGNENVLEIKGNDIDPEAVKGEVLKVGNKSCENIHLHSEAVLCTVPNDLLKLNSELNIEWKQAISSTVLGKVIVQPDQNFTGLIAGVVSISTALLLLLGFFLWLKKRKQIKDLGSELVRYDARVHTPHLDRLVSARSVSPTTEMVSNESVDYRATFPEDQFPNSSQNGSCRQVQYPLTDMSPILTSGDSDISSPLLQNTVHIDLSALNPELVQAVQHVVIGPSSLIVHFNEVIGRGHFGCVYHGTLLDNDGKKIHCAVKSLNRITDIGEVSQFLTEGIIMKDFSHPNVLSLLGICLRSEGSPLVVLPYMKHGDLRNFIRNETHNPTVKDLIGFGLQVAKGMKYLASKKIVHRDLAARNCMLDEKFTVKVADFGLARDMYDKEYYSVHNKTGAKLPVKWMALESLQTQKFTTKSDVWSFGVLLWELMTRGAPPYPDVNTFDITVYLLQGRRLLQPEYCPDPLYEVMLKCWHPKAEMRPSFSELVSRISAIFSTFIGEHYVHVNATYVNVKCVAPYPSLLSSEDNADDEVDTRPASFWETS
Procedure: as §16, §17, §18, §19, §20, §21, §22, §23, §24, §25

EBC-1 cell line = assay: Cell proliferation inhibition experiment (CellTiter-Glo), EBC-1; format: cell-based; conditions: Homo sapiens, CTG, 72 h
Procedure: as §1, §2, §3, §4, §5, §6, §7, §8, §9, §10, §11, §12, §13, §14, §15

Row | SMILES | IC50 (Hs746T cell line) [nM] | IC50 (H1993 cell line) [nM] | IC50 [1] [nM] | IC50 (MET D1228N) [nM] | IC50 (MET F1200I) [nM] | IC50 (EBC-1 cell line) [nM]
1 | C[C@H](CO)Nc1n[nH]c2nccc(Oc3ccc(NC(=O)c4cccc(-c5ccc(F)cc5)[n+]4[O-])cc3F)c12 [Final Product 2, (R)-2-((3-fluoro-4-((3-((1-hydroxypropan-2-yl)amino)-1H-pyrazolo[3,4-b]pyridin-4-yl)oxy)phenyl)carbamoyl)-6-(4-fluorophenyl)pyridine 1-oxide] | 8.5 | 31.8 | 0.9 | 18 | 3 | 12.6
2 | CCC(CO)Nc1n[nH]c2nccc(Oc3ccc(NC(=O)c4cccc(-c5ccc(F)cc5)[n+]4[O-])cc3F)c12 (stereo not shown) [Final product 4] | 12.6 | 54.9 | 2.2 | 15.7 | 10 | 14.4
3 | CC[C@H](CO)Nc1n[nH]c2nccc(Oc3ccc(NC(=O)c4cccc(-c5ccc(F)cc5)[n+]4[O-])cc3F)c12 [Final product 5] | – | 33 | 5.2 | 12.8 | 10.8 | –
4 | CC(C)(O)CNc1n[nH]c2nccc(Oc3ccc(NC(=O)c4cccc(-c5ccc(F)cc5)[n+]4[O-])cc3F)c12 [Final product 10] | 29.1 | – | 4.7 | 13.6 | 30.9 | 52.5
5 | O=C(Nc1ccc(Oc2ccnc3[nH]nc(NCC(O)CO)c23)c(F)c1)c1cccc(-c2ccc(F)cc2)[n+]1[O-] (stereo not shown) [Final product 15] | 21.6 | 39.4 | 1.3 | 20.1 | 6.5 | –
6 | O=C(Nc1ccc(Oc2ccnc3[nH]nc(NCC(CO)CO)c23)c(F)c1)c1cccc(-c2ccc(F)cc2)[n+]1[O-] [Final product 17] | – | 68.4 | 1.4 | 7.5 | 5.8 | –
7 | O=C(Nc1ccc(Oc2ccnc3[nH]nc(NC4COCC4O)c23)c(F)c1)c1cccc(-c2ccc(F)cc2)[n+]1[O-] (stereo not shown) [Final product 24] | 14.5 | – | 2.5 | 29.5 | 9.5 | 20.1
8 | O=C(Nc1ccc(Oc2ccnc3[nH]nc(N4CC(CO)C4)c23)c(F)c1)c1cccc(-c2ccc(F)cc2)[n+]1[O-] [Final product 25] | – | 62.2 | 1.9 | 20.5 | 4.3 | –
9 | O=C(Nc1ccc(Oc2ccnc3[nH]nc(N4CCC(CO)CC4)c23)c(F)c1)c1cccc(-c2ccc(F)cc2)[n+]1[O-] [Final product 28] | 14 | – | 3 | 34.5 | 9.6 | 17.1
10 | O=C(Nc1ccc(Oc2ccnc3[nH]nc(N4CCC(F)(CO)CC4)c23)c(F)c1)c1cccc(-c2ccc(F)cc2)[n+]1[O-] [Final product 30] | – | 50.2 | 1.7 | 11.2 | 5.5 | –
11 | CC(O)C1CCN(c2n[nH]c3nccc(Oc4ccc(NC(=O)c5cccc(-c6ccc(F)cc6)[n+]5[O-])cc4F)c23)CC1 (stereo not shown) [Final product 31] | – | 35 | 3 | 40.7 | 7.9 | –
12 | O=C(Nc1ccc(Oc2ccnc3[nH]nc(N4CCC[C@@H](CO)C4)c23)c(F)c1)c1cccc(-c2ccc(F)cc2)[n+]1[O-] [Final product 32] | – | 30.6 | 4.4 | 16.7 | 10.1 | –
13 | O=C(Nc1ccc(Oc2ccnc3[nH]nc(N4CC5(CC(O)C5)C4)c23)c(F)c1)c1cccc(-c2ccc(F)cc2)[n+]1[O-] [Final product 36] | 9.9 | – | 4 | 25.1 | 6.7 | 15.1
14 | C[C@H](CO)Nc1n[nH]c2nccc(Oc3ccc(NC(=O)c4cccc(-c5ccc(F)cc5F)[n+]4[O-])cc3F)c12 [Final product 44] | 15.2 | 85.3 | 2.5 | 14.8 | 6.7 | 21.3
15 | C[C@H](CO)Nc1n[nH]c2nccc(Oc3ccc(NC(=O)c4ccc(F)c(-c5ccc(F)cc5)[n+]4[O-])cc3F)c12 [Final product 53] | 14.6 | 29 | 2 | 4.8 | 8.7 | 15.7
16 | C[C@H](CO)Nc1n[nH]c2nccc(Oc3ccc(NC(=O)c4ccc(Cl)c(-c5ccc(F)cc5)[n+]4[O-])cc3F)c12 [Final product 57] | 11.4 | 59.5 | 1.6 | 28.5 | 2.8 | 19.6
17 | CC[C@H](CO)Nc1n[nH]c2nccc(Oc3ccc(NC(=O)c4ccc(Cl)c(-c5ccc(F)cc5)[n+]4[O-])cc3F)c12 [Final product 58] | 12.8 | 16.4 | 4.9 | 15.9 | 16.1 | 13.2
18 | O=C(Nc1ccc(Oc2ccnc3[nH]nc(N[C@@H]4CCC(O)C4)c23)c(F)c1)c1ccc(Cl)c(-c2ccc(F)cc2)[n+]1[O-] (stereo partly shown) [Final product 63] | 4.6 | – | 4.7 | 26.6 | 13.1 | 13.4
19 | Cc1ccc(C(=O)Nc2ccc(Oc3ccnc4[nH]nc(NCC5(O)CC5)c34)c(F)c2)[n+]([O-])c1-c1ccc(F)cc1 [Final product 70] | 24.4 | 12 | 6.9 | 35.5 | – | –
20 | CC(O)C1CN(c2n[nH]c3nccc(Oc4ccc(NC(=O)c5cccc(-c6ccc(F)cc6)[n+]5[O-])cc4Cl)c23)C1 (stereo not shown) [Final product 107] | – | 76.9 | 1.6 | 26.8 | 12.3 | –
21 | C[C@H](CO)Nc1n[nH]c2nccc(Oc3ccc(NC(=O)c4ccc(Cl)c(-c5ccc(F)cc5)[n+]4[O-])cc3Cl)c12 [Final product 121] | – | 42.3 | 4.3 | 19 | 11.4 | –
22 | C[C@H](CO)Nc1n[nH]c2nccc(Oc3ccc(NC(=O)c4ccc(OC(F)F)c(-c5ccc(F)cc5)[n+]4[O-])cc3Cl)c12 [Final product 139] | – | 31.1 | 4.5 | 18.5 | 15.3 | –
23 | C[C@H](CO)Nc1n[nH]c2nccc(Oc3ccc(NC(=O)c4ccc(Cl)c(-c5ccc(F)cc5)[n+]4[O-])c(F)c3)c12 [Final product 159] | – | 78.4 | 3 | 14.8 | 2 | –
24 | O=C(Nc1ccc(Oc2ncnc3ccn(CCCO)c23)c(F)c1)c1cccc(-c2ccc(F)cc2)[n+]1[O-] [Final product 168, 2-((3-fluoro-4-((5-(3-hydroxypropyl)-5H-pyrrolo[3,2-d]pyrimidin-4-yl)oxy)phenyl)carbamoyl)-6-(4-fluorophenyl)pyridine 1-oxide] | 65.4 | – | 3.8 | 13.9 | 9.2 | 56.7
